From patent US20150258108A1 (priority 2014, published 2015)
Values joined by “and” are separate entries in the source; they are usually repeats but may differ in a detail not shown here. Equal values may be shown once. Read-outs that look alike come from different tables or passages of the source.

How the values were obtained:
[1] = Pupillometry and cold pressor test in healthy volunteers; format: in vivo, human; details: 3-60 mg single oral dose
Description: Pulse oximetry and capnography data were collected continuously using a GE Carescape B650 monitoring system from 2 hours prior to dosing and until six hours after dosing, and thereafter at 12, 24, 48 and 72 hours post-dosing. Additional oximetry data were collected at 120, 168 and 216 hours. Pupillary miosis was assessed by pupillometry. Dark-adapted pupil diameter was measured in triplicate using a Neuroptics PLR-200 pupillometer under standardized light intensity (<5 lux) pre-dose, and at 2, 4, 6, 12, 24, 48, 72, 96, 120, 168 and 216 hours post-dosing.
Summary statistics (means, standard deviations, and coefficients of variation) were determined for each dose group for safety laboratory test data, ECG and pharmacokinetic parameters, and pharmacodynamic variables. Categorical variables were analysed using counts and percentages. Dose-proportionality of AUC and Cmax was assessed using linear regression. The effect of dose on pharmacodynamic parameter values over time was assessed using two-factor analysis of variance (ANOVA). […]
Analgesic effect was assessed based on duration of hand immersion in ice water and on visual analog scale (VAS) pain scores upon hand removal from the water bath. […]

[2] = target: T1, human OPRK (κ-opioid receptor) (Homo sapiens, UniProt P41145); test: biochemical; format: binding; details: Ki, OPRK, [3H]-U69,593 binding; This work
T1 construct: purchased PerkinElmer Life Sciences (Boston, Mass.)

[3] = test system: human OPRK (κ-opioid receptor); test: biochemical; format: binding; details: ΔpKi = pKi(OPRK)-pKi(OPRM)
[4] = target: human OPRM (Homo sapiens, UniProt P35372); test: cell-based; format: cell-based; design: host or cells: CHO-K1
[5] = target: OPRK (Homo sapiens, UniProt P41145); test: cell-based; design: host or cells: CHO-K1
[6] = Pharmacokinetics in opioid-dependent patients (Phase IB); details: 60, 120, 180 mg cohorts
[7] = Treatment emergent adverse events in opioid-dependent participants (Phase IB)
[8] = target: human OPRM (μ-opioid receptor) (Homo sapiens, UniProt P35372); test: biochemical; format: binding; design: expressed in transfected cells; host or cells: CHO-K1 (cell lines provided by Dr. Toll, Torrey Pines Institute)
[9] = 60 mg single dose, opioid-dependent patients, N = 6, events:subjects (%)
[10] = 120 mg single dose, opioid-dependent patients, N = 6, events:subjects (%)
[11] = 180 mg single dose, opioid-dependent patients, N = 6, events:subjects (%)

Chain of human OPRM (P35372 whole entry): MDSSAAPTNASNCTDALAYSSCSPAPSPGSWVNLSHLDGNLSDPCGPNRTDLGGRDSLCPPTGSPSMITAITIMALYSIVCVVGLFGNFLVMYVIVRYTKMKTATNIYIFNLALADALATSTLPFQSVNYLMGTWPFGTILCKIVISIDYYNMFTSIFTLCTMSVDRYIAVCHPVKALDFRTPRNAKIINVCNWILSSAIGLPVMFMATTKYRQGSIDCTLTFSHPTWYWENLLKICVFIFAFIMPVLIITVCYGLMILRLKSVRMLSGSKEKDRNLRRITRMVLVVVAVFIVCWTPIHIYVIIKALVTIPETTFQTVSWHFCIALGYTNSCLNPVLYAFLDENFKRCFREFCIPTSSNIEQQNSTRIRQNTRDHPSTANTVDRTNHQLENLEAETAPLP
Chain of OPRK (P41145 whole entry): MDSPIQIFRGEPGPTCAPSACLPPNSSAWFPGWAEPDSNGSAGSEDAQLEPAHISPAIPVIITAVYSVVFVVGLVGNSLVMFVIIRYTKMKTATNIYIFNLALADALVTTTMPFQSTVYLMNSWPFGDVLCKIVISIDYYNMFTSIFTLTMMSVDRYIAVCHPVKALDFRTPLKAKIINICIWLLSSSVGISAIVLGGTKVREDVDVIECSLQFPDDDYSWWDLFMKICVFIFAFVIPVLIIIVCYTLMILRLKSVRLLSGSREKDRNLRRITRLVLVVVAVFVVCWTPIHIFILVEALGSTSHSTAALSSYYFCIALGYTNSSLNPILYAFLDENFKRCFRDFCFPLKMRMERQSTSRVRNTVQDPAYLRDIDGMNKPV
T1 sequence (P41145 whole entry): as above
Chain of human OPRM (μ-opioid receptor) (P35372 whole entry): as the sequence (P35372 whole entry) above

With `CC[C@H]1CC2C[C@H]3c4[nH]c5ccc(O)cc5c4CCN(C2)C13` [Noribogaine] the “analgesic effect in the cold pressor test” value ([1]; hand immersion duration and VAS pain scores) was “no analgesic effect”, the “pupillary constriction (pupillometry, dark-adapted pupil diameter)” value ([1]; vs placebo) was “no evidence of pupillary constriction” and the Ki [2] was 0.72 µM and 0.7 µM. The “Specificity ΔpKi” value [3] was 0.4 and 0.3, the EC50 [4] was about 1.15 µM and the Efficacy [4] was 3%. The IC50 [4] was about 57 µM, the Ke [4] was about 4.8 µM and the “agonism at OPRM β-arrestin-2 recruitment” value [4] was “not an agonist at OPRM”. For the same molecule, the e-coupling [4] was about 1.10, the “inhibition of agonist response (up to)” value [4] was 60-100% and the Kb ([4]; pEC50, pKe) was 63.1 µM. The EC50 [5] was about 0.265 µM, the IC50 [5] was 1.45 ± 1.1 µM and the Kb [5] was 0.251 µM. For the same molecule, the “Beta-Arrestin2 Pathway e-coupling” value ([5]; OPRK, Activation) was −0.43, the “Beta-Arrestin2 Pathway e-signal” value ([5]; OPRK, Activation) was 0.13 and the “inhibition of agonist response (up to)” value ([5]; OPRK, Dynorphin A at EC80) was about 60%. For the same molecule, the IC50 ([5]; OPRK, Dynorphin A at EC80 (370 nM Dyn-A)) was 1.45 µM, the “Beta-Arrestin2 Pathway e-coupling” value ([5]; OPRK, Inhibition) was −0.44 and the “Beta-Arrestin2 Pathway e-signal” value ([5]; OPRK, Inhibition) was 0.60. The “Efficacy (Emax)” value ([5]; OPRK, activation, % of dynorphin A maximal stimulation) was 12% and 12.6%, the e-coupling ([5]; OPRK, activation, pKi-pEC50) was −0.43 and the Ke ([5]; OPRK, inhibition of Dynorphin A at EC80) was 262 nM. The e-coupling ([5]; OPRK, inhibitory component, pKi-pKe) was −0.44, the “Maximum serum concentration (Cmax) versus dose” value [6] was “increased in a dose-dependent manner” and the “TEAE: Catheter Site Infection” value [7, 9] was 0. The “TEAE: Catheter Site Pain” value [7, 9] was 0, the “TEAE: Catheter Site Related Reaction” value [7, 9] was 0 and the “TEAE: Cellulitis” value [7, 9] was 0. The “TEAE: Diarrhoea” value [7, 9] was 0, the “TEAE: Dry Mouth” value [7, 9] was 0 and the “TEAE: Ear and Labyrinth Disorders” value [7, 9] was 0. The “TEAE: Epistaxis” value [7, 9] was 0, the “TEAE: Euphoric Mood” value [7, 9] was 0 and the “TEAE: General Disorders and Administration Site Conditions” value [7, 9] was 0. For the same molecule, the “TEAE: Hyperaesthesia” value [7, 9] was 0, the “TEAE: Infections and Infestations” value [7, 9] was 0 and the “TEAE: Limb Discomfort” value [7, 9] was 0. The “TEAE: Malaise” value [7, 9] was 0, the “TEAE: Nausea” value [7, 9] was 0 and the “TEAE: Oropharyngeal Pain” value [7, 9] was 0. For the same molecule, the “TEAE: Pseudoparalysis” value [7, 9] was 0, the “TEAE: Respiratory, Thoracic and Mediastinal Disorders” value [7, 9] was 0 and the “TEAE: Rhinorrhoea” value [7, 9] was 0. The “TEAE: Skin Discomfort” value [7, 9] was 0, the “TEAE: Skin Irritation” value [7, 9] was 0 and the “TEAE: Skin and Subcutaneous Tissue Disorders” value [7, 9] was 0. For the same molecule, the “TEAE: Somnoience” value [7, 9] was 0, the “TEAE: Tinnitus” value [7, 9] was 0 and the “TEAE: Tremor” value [7, 9] was 0. For the same molecule, the “TEAE: Urinary Tract Infection” value [7, 9] was 0, the “TEAE: Vomiting” value [7, 9] was 0 and the “TEAE: Back Pain” value [7, 10] was 0. For the same molecule, the “TEAE: Catheter Site Infection” value [7, 10] was 0, the “TEAE: Catheter Site Related Reaction” value [7, 10] was 0 and the “TEAE: Depressed Mood” value [7, 10] was 0. For the same molecule, the “TEAE: Dry Eye” value [7, 10] was 0, the “TEAE: Dyspepsia” value [7, 10] was 0 and the “TEAE: Euphoric Mood” value [7, 10] was 0. The “TEAE: Limb Discomfort” value [7, 10] was 0, the “TEAE: Malaise” value [7, 10] was 0 and the “TEAE: Musculoskeletal and Connective Tissue Disorders” value [7, 10] was 0. For the same molecule, the “TEAE: Psychiatric Disorders” value [7, 10] was 0, the “TEAE: Somnoience” value [7, 10] was 0 and the “TEAE: Urinary Tract Infection” value [7, 10] was 0. For the same molecule, the “TEAE: Catheter Site Infection” value [7, 11] was 0, the “TEAE: Catheter Site Pain” value [7, 11] was 0 and the “TEAE: Depressed Mood” value [7, 11] was 0. The “TEAE: Diarrhoea” value [7, 11] was 0, the “TEAE: Dry Eye” value [7, 11] was 0 and the “TEAE: Dyspepsia” value [7, 11] was 0. For the same molecule, the “TEAE: Ear and Labyrinth Disorders” value [7, 11] was 0, the “TEAE: Epistaxis” value [7, 11] was 0 and the “TEAE: Euphoric Mood” value [7, 11] was 0. For the same molecule, the “TEAE: Hyperaesthesia” value [7, 11] was 0, the “TEAE: Malaise” value [7, 11] was 0 and the “TEAE: Oropharyngeal Pain” value [7, 11] was 0. For the same molecule, the “TEAE: Pseudoparalysis” value [7, 11] was 0, the “TEAE: Psychiatric Disorders” value [7, 11] was 0 and the “TEAE: Respiratory, Thoracic and Mediastinal Disorders” value [7, 11] was 0. For the same molecule, the “TEAE: Rhinorrhoea” value [7, 11] was 0, the “TEAE: Skin Discomfort” value [7, 11] was 0 and the “TEAE: Skin Irritation” value [7, 11] was 0. For the same molecule, the “TEAE: Skin and Subcutaneous Tissue Disorders” value [7, 11] was 0, the “TEAE: Somnoience” value [7, 11] was 0 and the “TEAE: Tinnitus” value [7, 11] was 0. The “TEAE: Tremor” value [7, 11] was 0, the hallucinatory effects ([7]; 60, 120, 180 mg single dose, opioid-dependent participants) was “no hallucinatory effects” and the Ki [8] was 1.52 ± 0.3 µM.
